Laboratory results as given in US20180320217A1, “METHODS FOR SAMPLING AND MEASURING ORAL LAVAGE PROTEINS” (The Procter & Gamble Company, priority 2017, published 2018).
Where “and” joins values, the source holds several entries; their conditions need not be identical. Equal values may be shown once. Where a name gives a salt, the structure may show the parent alone.

What was measured:
diaphorase [1] = assay: Formation of formazan dyes: NADH, diaphorase and malate (TABLE 8); type: biochemical, Clostridium kluyveri; settings: NADH, diaphorase and malate
[2] = Formation of formazan dyes: control buffer and 1-Methoxy PMS, absence of malate (TABLE 21); type: biochemical
[3] = Formation of formazan dyes: control buffer, malate and 1-Methoxy PMS (TABLE 22); type: biochemical
Malate dehydrogenase [4] = biological target: T1, Malate dehydrogenase (Sus scrofa, UniProt P00346); assay: Formation of formazan dyes: Malate dehydrogenase, malate and 1-Methoxy PMS (TABLE 18); type: biochemical, pig heart; set-up: L-malate dehydrogenase (pig heart); purchased Sigma-Aldrich 10127248001 / 10127914001
T1 sequence (P00346 25-338): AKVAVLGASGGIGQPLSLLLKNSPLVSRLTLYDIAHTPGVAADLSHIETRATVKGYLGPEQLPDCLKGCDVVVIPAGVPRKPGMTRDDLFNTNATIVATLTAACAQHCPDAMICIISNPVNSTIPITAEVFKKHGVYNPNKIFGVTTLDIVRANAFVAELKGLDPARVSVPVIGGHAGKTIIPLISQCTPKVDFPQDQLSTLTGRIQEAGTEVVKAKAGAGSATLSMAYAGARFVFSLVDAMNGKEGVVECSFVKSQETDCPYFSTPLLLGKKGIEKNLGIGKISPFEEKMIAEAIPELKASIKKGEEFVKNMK

[5] = system: Malate dehydrogenase and diaphorase; assay: Formation of formazan dyes: Malate dehydrogenase and diaphorase, absence of malate (TABLE 9); type: biochemical, pig heart
diaphorase [6] = assay: Formation of formazan dyes: only diaphorase and malate (TABLE 14); type: biochemical, Clostridium kluyveri; settings: mean of three experiments
Malate dehydrogenase [7] = biological target: T1, Malate dehydrogenase; assay: Formation of formazan dyes: Malate dehydrogenase and 1-Methoxy PMS, absence of malate (TABLE 17); type: biochemical, pig heart; set-up: L-malate dehydrogenase (pig heart); purchased Sigma-Aldrich 10127248001 / 10127914001
[8] = system: Malate dehydrogenase and diaphorase; assay: Formation of formazan dyes: Malate dehydrogenase, diaphorase and malate (TABLE 10); type: biochemical, pig heart
oral lavage [9] = assay: Formation of formazan dyes: oral lavage, malate and diaphorase (TABLE 12); type: biochemical, human; settings: oral lavage, malate and diaphorase
diaphorase [10] = assay: Formation of formazan dyes: NADH and diaphorase, absence of malate (TABLE 7); type: biochemical, Clostridium kluyveri; settings: NADH and diaphorase, absence of malate
[11] = Formation of formazan dyes: NADH, malate and 1-methoxy PMS (TABLE 16); type: biochemical
oral lavage [12] = assay: Formation of formazan dyes: oral lavage and diaphorase, not malate (TABLE 11); type: biochemical, human
diaphorase [13] = assay: Formation of formazan dyes: only diaphorase, not malate (TABLE 13); type: biochemical, Clostridium kluyveri; settings: mean of three experiments

COc1cc([N+](=O)[O-])c(S(=O)(=O)[O-])cc1-n1nc(C(=O)Nc2ccccc2)n[n+]1-c1cc(S(=O)(=O)O)c([N+](=O)[O-])cc1OC [XTT, 2,3-Bis(2-methoxy-4-nitro-5-sulfophenyl)-2H-tetrazolium-5-carboxanilide inner salt]
Formation of formazan dyes, absorbance, Means 0 h (diaphorase [1]; 0 h): 1.95
Formation of formazan dyes, absorbance, Means 1 h (diaphorase [1]; 1 h): 2.20
Formation of formazan dyes, absorbance, Means 2 h (diaphorase [1]; 2 h): 2.18
Formation of formazan dyes, absorbance, Means 3 h (diaphorase [1]; 3 h): 2.17
Formation of formazan dyes, absorbance, Means 4 h (diaphorase [1]; 4 h): 2.23
Formation of formazan dyes, absorbance, Means 6 h (diaphorase [1]; 6 h): 2.28
Formation of formazan dyes, absorbance, Means 8 h (diaphorase [1]; 8 h): 2.33
Formation of formazan dyes, absorbance, Means 10 h (diaphorase [1]; 10 h): 2.41
Formation of formazan dyes, absorbance, Means 12 h (diaphorase [1]; 12 h): 2.45
conversion into colored formazan dyes in assay buffer containing 1-methoxy PMS [2]: slowly catalyze the conversion of tetrazolium salts into colored formazan dyes
Means absorbance 0 h [3]: 0.42
Means absorbance 1 h [3]: 0.48
Means absorbance 2 h [3]: 0.53
Means absorbance 3 h [3]: 0.59
Means absorbance 4 h [3]: 0.60
Means absorbance 6 h [3]: 0.77
Means absorbance 8 h [3]: 0.91
Means absorbance 10 h [3]: 1.03
Means absorbance 12 h [3]: 1.17
Absorbance, formation of formazan dyes (Means) (Malate dehydrogenase [4]): 2.09 and 3.28 and 3.71 and 3.96 and 4.00
Formation of formazan dyes, absorbance, Means 0 h ([5]; Malate dehydrogenase and diaphorase, absence of malate, 0 h): 0.39
Formation of formazan dyes, absorbance, Means 1 h ([5]; Malate dehydrogenase and diaphorase, absence of malate, 1 h): 0.44
Formation of formazan dyes, absorbance, Means 2 h ([5]; Malate dehydrogenase and diaphorase, absence of malate, 2 h): 0.46
Formation of formazan dyes, absorbance, Means 3 h ([5]; Malate dehydrogenase and diaphorase, absence of malate, 3 h): 0.50
Formation of formazan dyes, absorbance, Means 4 h ([5]; Malate dehydrogenase and diaphorase, absence of malate, 4 h): 0.50
Formation of formazan dyes, absorbance, Means 6 h ([5]; Malate dehydrogenase and diaphorase, absence of malate, 6 h): 0.54
Formation of formazan dyes, absorbance, Means 8 h ([5]; Malate dehydrogenase and diaphorase, absence of malate, 8 h): 0.57
Formation of formazan dyes, absorbance, Means 10 h ([5]; Malate dehydrogenase and diaphorase, absence of malate, 10 h): 0.58
Formation of formazan dyes, absorbance, Means 12 h ([5]; Malate dehydrogenase and diaphorase, absence of malate, 12 h): 0.66
reduction of tetrazolium dye in the absence of substrate malate ([5]; malate dehydrogenase and diaphorase (TABLE 9)): remained largely in oxidized forms
Absorbance, formation of formazan dyes (Means) (diaphorase [6]; 0 h): 0.39
Absorbance, formation of formazan dyes (Means) (diaphorase [6]; 1 h): 0.45
Absorbance, formation of formazan dyes (Means) (diaphorase [6]; 2 h): 0.48
Absorbance, formation of formazan dyes (Means) (diaphorase [6]; 3 h): 0.53
Absorbance, formation of formazan dyes (Means) (diaphorase [6]; 4 h): 0.52
Absorbance, formation of formazan dyes (Means) (diaphorase [6]; 6 h): 0.57
Absorbance, formation of formazan dyes (Means) (diaphorase [6]; 8 h): 0.63
Absorbance, formation of formazan dyes (Means) (diaphorase [6]; 10 h): 0.69
Absorbance, formation of formazan dyes (Means) (diaphorase [6]; 12 h): 0.73
Absorbance, formation of formazan dyes (Means) (Malate dehydrogenase [7]): 0.61 and 0.72 and 0.80 and 0.82 and 0.84 and 0.85 and 0.91 and 0.93
Formation of formazan dyes, absorbance, Means 0 h ([8]; Malate dehydrogenase, diaphorase and malate, 0 h): 1.21
Formation of formazan dyes, absorbance, Means 1 h ([8]; Malate dehydrogenase, diaphorase and malate, 1 h): 1.98
Formation of formazan dyes, absorbance, Means 2 h ([8]; Malate dehydrogenase, diaphorase and malate, 2 h): 2.41
Formation of formazan dyes, absorbance, Means 3 h ([8]; Malate dehydrogenase, diaphorase and malate, 3 h): 2.71
Formation of formazan dyes, absorbance, Means 4 h ([8]; Malate dehydrogenase, diaphorase and malate, 4 h): 3.02
Formation of formazan dyes, absorbance, Means 6 h ([8]; Malate dehydrogenase, diaphorase and malate, 6 h): 3.54
Formation of formazan dyes, absorbance, Means 8 h ([8]; Malate dehydrogenase, diaphorase and malate, 8 h): 3.86
Formation of formazan dyes, absorbance, Means 10 h ([8]; Malate dehydrogenase, diaphorase and malate, 10 h): 3.90
Formation of formazan dyes, absorbance, Means 12 h ([8]; Malate dehydrogenase, diaphorase and malate, 12 h): 3.80
conversion to reduced formazan dyes ([8]; malate dehydrogenase, diaphorase and malate (TABLE 10)): converted to reduced formazan dyes in a time-dependent manner
Formation of formazan dyes, absorbance, Means 0 h (oral lavage [9]; 0 h): 0.75
Formation of formazan dyes, absorbance, Means 1 h (oral lavage [9]; 1 h): 0.88
Formation of formazan dyes, absorbance, Means 2 h (oral lavage [9]; 2 h): 0.94
Formation of formazan dyes, absorbance, Means 3 h (oral lavage [9]; 3 h): 0.98
Formation of formazan dyes, absorbance, Means 4 h (oral lavage [9]; 4 h): 1.19
Formation of formazan dyes, absorbance, Means 6 h (oral lavage [9]; 6 h): 1.41
Formation of formazan dyes, absorbance, Means 8 h (oral lavage [9]; 8 h): 1.73
Formation of formazan dyes, absorbance, Means 10 h (oral lavage [9]; 10 h): 1.90
Formation of formazan dyes, absorbance, Means 12 h (oral lavage [9]; 12 h): 2.08
Formation of formazan dyes, absorbance, Means 0 h (diaphorase [10]; 0 h): 2.22
Formation of formazan dyes, absorbance, Means 1 h (diaphorase [10]; 1 h): 2.35
Formation of formazan dyes, absorbance, Means 2 h (diaphorase [10]; 2 h): 2.36
Formation of formazan dyes, absorbance, Means 3 h (diaphorase [10]; 3 h): 2.32
Formation of formazan dyes, absorbance, Means 4 h (diaphorase [10]; 4 h): 2.40
Formation of formazan dyes, absorbance, Means 6 h (diaphorase [10]; 6 h): 2.39
Formation of formazan dyes, absorbance, Means 8 h (diaphorase [10]; 8 h): 2.45
Formation of formazan dyes, absorbance, Means 10 h (diaphorase [10]; 10 h): 2.45
Formation of formazan dyes, absorbance, Means 12 h (diaphorase [10]; 12 h): 2.46
Absorbance, formation of formazan dyes (Means) [11]: 1.51 and 1.56 and 1.61 and 1.67 and 1.80 and 1.94 and 2.02 and 2.15
Formation of formazan dyes, absorbance, Means 0 h (oral lavage [12]; oral lavage and diaphorase, not malate, 0 h): 0.80
Formation of formazan dyes, absorbance, Means 1 h (oral lavage [12]; oral lavage and diaphorase, not malate, 1 h): 0.98
Formation of formazan dyes, absorbance, Means 2 h (oral lavage [12]; oral lavage and diaphorase, not malate, 2 h): 1.04
Formation of formazan dyes, absorbance, Means 3 h (oral lavage [12]; oral lavage and diaphorase, not malate, 3 h): 0.99
Formation of formazan dyes, absorbance, Means 4 h (oral lavage [12]; oral lavage and diaphorase, not malate, 4 h): 1.18
Formation of formazan dyes, absorbance, Means 6 h (oral lavage [12]; oral lavage and diaphorase, not malate, 6 h): 1.24
Formation of formazan dyes, absorbance, Means 8 h (oral lavage [12]; oral lavage and diaphorase, not malate, 8 h): 1.26
Formation of formazan dyes, absorbance, Means 10 h (oral lavage [12]; oral lavage and diaphorase, not malate, 10 h): 1.27
Formation of formazan dyes, absorbance, Means 12 h (oral lavage [12]; oral lavage and diaphorase, not malate, 12 h): 1.28
reduction to formazan dyes by pooled oral lavage (oral lavage [12]; pooled oral lavage of high bleeder group, diaphorase, no added malate (TABLE 11)): changed to formazan dyes in a significant amount
Absorbance, formation of formazan dyes (Means) (diaphorase [13]; 0 h): 0.41
Absorbance, formation of formazan dyes (Means) (diaphorase [13]; 1 h): 0.49
Absorbance, formation of formazan dyes (Means) (diaphorase [13]; 2 h): 0.52
Absorbance, formation of formazan dyes (Means) (diaphorase [13]; 3 h): 0.54
Absorbance, formation of formazan dyes (Means) (diaphorase [13]; 4 h): 0.54
Absorbance, formation of formazan dyes (Means) (diaphorase [13]; 6 h): 0.60
Absorbance, formation of formazan dyes (Means) (diaphorase [13]; 8 h): 0.63
Absorbance, formation of formazan dyes (Means) (diaphorase [13]; 10 h): 0.64
Absorbance, formation of formazan dyes (Means) (diaphorase [13]; 12 h): 0.67
